One assay deals with SKM-1. Kind of assay: CellTiter Blue cell viability assay. The note with it: SKM-1, 48 h, read-out: cellular IC50. It counts as cell-based, human. The source says:
(§1) The human AML cell lines, OCI-AML3 (carrying the NPM1 gene mutation A and the DNMT3A^R882C mutation), IMS-M2 (carrying the NPM1 gene mutation A), OCI-AML2 (with the wild-type NPM1 and DNMT3A^R635W mutation), and SKM-1 and MOLM-13 (with the wild-type NPM1) were previously reported. The cell lines were purchased from the Deutsche Sammelung von Mikroorganismen und Zellkulturen (DSMZ) (Braunschweig, Germany) cell bank and maintained according to the vendors’ instructions. Briefly, cultured cells were split every 3 days and maintained in an exponential growth phase. The cell lines were tested for mycoplasma using the Universal Mycoplasma Detection Kit (ATCC). The OCI-AML3 were grown in α-MEM supplemented with 20% fetal bovine serum, 100 U/mL penicillin, and 100 μg/mL streptomycin (P/S), and all other cell lines were cultured in RPMI and supplemented with a 10–20% fetal bovine serum and 100 U/mL penicillin and 100 μg/mL streptomycin. The cells were kept at 37 °C in a 5% CO2 incubator. Prior to screening, the appropriate cell concentration for all cell lines was determined. For the cell lines’ treatments, cells were maintained as follows: OCI-AML3 at 0.25 × 10^6/mL, OCI-AML2 and IMS-M2 at 0.35 × 10^6/mL, and SKM-1 and MOLM-13 at 0.5 × 10^6/mL. The compounds were re-suspended at 10 mM stock in DMSO. Further dilutions were performed in phosphate-buffer-saline (PBS) for pharmacological experiments. The cells were exposed to compounds at different concentrations for the indicated time points and sampled as described below. Briefly, the cells (4 × 10^5/mL) were seeded in 384-well plate and treated for 48 h with various concentrations (0.001 μM to 100 μM) of either one of the compounds, T101, T126, and T159, or NSC348884, as a positive control. Each plate included DMSO at 0.1% as a negative control. The metabolic cell activity was measured by using the CellTiter Blue proliferation agent (Roche) as described in the manufacturer’s procedure. Briefly, CellTiter Blue solution (Resazaurin) was added to each well and the plates were incubated at 37 °C with 5% CO2 for 4 h. During the incubation time, the resazurin is reduced to fluorescent resorufin in metabolically and proliferating living cells. The fluorescence intensity was measured using the automated Tecan plate reader (Tecan Group Ltd., Männedorf, Switzerland) at an excitation/emission wavelength of 531/572 nm. The fluorescence readouts were reported as relative fluorescence units (RFU) and read on a luminescence plate reader (Infinite 200 Pro, Tecan, CA, USA). The dose response curves ([…] (IC50)) were obtained by non-linear regression analysis using the GraphPad Prism 5.0 program. The concentration is shown as a logarithmic function. All the experiments were performed at least in triplicate, with technical repetition. The results are expressed as mean ± standard error of the mean (SEM). For the Colony Forming Unit (CFU) assay, 10 × 10^6 CD34+ human hematopoietic progenitors were received from unique healthy donors, upon signed informed consent, and were cultured in SFEM II (Serum-free medium) and P/S at a density of 1 × 10^6/mL with cytokines that are important for cell division and self-renewal: fms-like tyrosine kinase 3 (FLT3)-ligand, FLT3L (100 ng/mL), Stem Cell Factor, SCF (100 ng/mL) and Trombopoietin, and TPO (50 ng/mL) for 48 h before plating them on a Methocult medium.

The test system of another assay is OCI-AML3. Nature of the assay: CellTiter Blue cell viability assay. The note with it: OCI-AML3, 48 h, read-out: cellular IC50. Type of assay: cell-based, human.
From the text: as §1
In general terms: Resazurin is reduced to fluorescent resorufin, in cell work by metabolically active cells.

A further assay concerns IMS-M2. Nature of the assay: CellTiter Blue cell viability assay. Type of assay: cell-based, human. The note with it: IMS-M2, 48 h, read-out: cellular IC50.
From the text: as §1

For a further assay, the system named is MOLM-13. Nature of the assay: CellTiter Blue cell viability assay. It counts as cell-based, human. The note with it: MOLM-13, 48 h, read-out: cellular IC50.
From the text: as §1

The next assay concerns OCI-AML2. Nature of the assay: CellTiter Blue cell viability assay. It counts as cell-based, human. The note with it: OCI-AML2, 48 h, read-out: cellular IC50.
From the text: as §1

Assay [1] addresses T1, AKT1 (Homo sapiens, UniProt P31749).
T1 construct: purchased Kinase Logistics, Meyn, Germany #Aps 01-101
Nature of the assay: AKT1 enzymatic inhibition assay. It counts as biochemical. The note with it: for Ligand efficiency (LE = 1.4 pIC50/N): from AKT1 IC50, N = heavy atoms; for Ki: read-out: Ki (AKT1 inhibition constant). As to the method:
The studied compounds, including the standard inhibitor Staurosporine (Thermo-Fisher , Madrid, Spain, Invitrogen BP2541), were incubated with 3 nM AKT1 (#Aps 01-101; Kinase Logistics, Meyn, Germany) and 1.5 μM Profiler Pro peptide 6 (#760350; Perkin Elmer, Tres Cantos, Madrid, Spain) in the presence of different concentrations of Adenosine 5′triphosphate disodium salt, ATP (#A2383; Sigma Aldrich, Madrid, Spain) in a 384-well Microplate (#781076; Greiner, San Sebastián de los Reyes, Madrid, Spain). The reaction rate was calculated from kinetic measurements carried out measured in a Caliper EzReader LabChip 3000 (Caliper, Hopkinton, MA, USA) reader with samples taken each 10 min for a total time of 60 min. The percentage of substrate conversion rate was plotted versus the ATP concentration. The data was analyzed by non-linear fitting with GraphPad Prism by employing the Michaelis–Menten equation. The buffer assay used in the inhibition hAKT1 assay is: Hepes 100 mM, DMSO 4%, Brij 0.003%, Tween 20 0.004%, MgCl2 10 mM, with a pH = 7.5.
The Ki values were calculated by employing the GraphPad Prism equations.

The subject of a further assay is p38 MAPK. Nature of the assay: activity against p38 MAPK (originally desired target). It counts as biochemical.
Assay [2] concerns AKT1. Also on record: method as in PMID 33995085. The note with it: ref [51]; cited from earlier work.
Another assay relates to AKT3. Also on record: method as in PMID 33995085. As to conditions: ref [51]; cited from earlier work.
The mark [3] stands for this setting: 10 μM compound, read-out: %inh (percentage of inhibition of AKT1 activity).

This is an account of results in publication PMC9698716, “From Serendipity to Rational Identification of the 5,6,7,8-Tetrahydrobenzo[4,5]thieno[2,3-d]pyrimidin-4(3H)-one Core as a New Chemotype of AKT1 Inhibitors for Acute Myeloid Leukemia” (Pharmaceutics, 2022).

Where two headings read alike, the source gives them in different places.

In general, IC50 refers to the point on the concentration scale where inhibition reaches its midpoint. As a reminder, the inhibition is the percentage by which the read-out fell short of the control. By Ki is commonly meant a measure of affinity in units of concentration, obtained from inhibition or displacement.

T1 sequence (P31749 whole entry): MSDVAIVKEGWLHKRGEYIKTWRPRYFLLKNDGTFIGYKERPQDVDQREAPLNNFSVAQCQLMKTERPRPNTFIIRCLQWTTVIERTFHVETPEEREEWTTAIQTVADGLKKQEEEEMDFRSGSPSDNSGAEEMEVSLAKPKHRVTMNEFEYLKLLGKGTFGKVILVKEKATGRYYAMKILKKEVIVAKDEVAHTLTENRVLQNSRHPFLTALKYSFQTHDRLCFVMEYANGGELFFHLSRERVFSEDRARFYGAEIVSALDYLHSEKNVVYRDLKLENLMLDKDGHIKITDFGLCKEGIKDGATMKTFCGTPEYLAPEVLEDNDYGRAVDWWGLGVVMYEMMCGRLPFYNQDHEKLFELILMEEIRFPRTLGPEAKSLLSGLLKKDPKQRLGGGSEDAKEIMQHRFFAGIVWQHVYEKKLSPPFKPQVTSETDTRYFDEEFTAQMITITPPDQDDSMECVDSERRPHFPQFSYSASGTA

Turning to `Cc1ccc2nc(CN(CCN(Cc3nc4ccc(C)cc4[nH]3)Cc3nc4ccc(C)cc4[nH]3)Cc3nc4ccc(C)cc4[nH]3)[nH]c2c1` [NSC348884, reference compound], the IC50 with SKM-1 was determined as 2.1 µM; with OCI-AML3, 6.6 µM; in the assay on IMS-M2 it was 7.6 µM; in the assay on MOLM-13, 3.4 µM; in the assay on OCI-AML2, 5.6 µM.

Regarding `Cc1cc(-c2ccccc2)nc2nc(NC(=O)c3ccc(O)c(O)c3)nn12` [T101], the IC50 in the assay on SKM-1 (Homo sapiens) was more than 30 µM; in the assay on OCI-AML3 (Homo sapiens, OCI-AML-3), more than 30 µM; with IMS-M2 (Homo sapiens), more than 30 µM; in the assay with MOLM-13 (Homo sapiens) it was more than 30 µM; with OCI-AML2 (Homo sapiens) it was more than 30 µM; against AKT1 [1], 1.62 ± 0.15 µM. Also, on AKT1 [1] (setting [3]), the inhibition at 10 µM is 95%. Moreover, the “Ligand efficiency (LE = 1.4 pIC50/N)” value on AKT1 [1] is given as 0.29 kcal mol^−1 N^−1. Besides, the inhibition constant (Ki) at AKT1 [1] was determined as 0.24 µM.

Consider `O=c1[nH]c(-c2ccc(O)c(O)c2)nc2sc3c(c12)CCCCC3` [T124], for which, at AKT1 [1], the half-maximal inhibitory concentration (IC50) was determined as 30.9 µM, the “potency against AKT1 (in words)” value is recorded as “moderately active” and the “Ligand efficiency (LE = 1.4 pIC50/N)” value worked out at 0.27 kcal mol^−1 N^−1. The “%inh (percentage of inhibition of AKT1 activity)” value at AKT1 [1] (10 μM compound, 10 µM) was determined as 60%. In addition, at AKT1 [1] (setting [3]), the inhibition at 10 µM was more than 60%.

As to `O=c1[nH]c(-c2ccc(O)c(O)c2)nc2sc3c(c12)CCC3` [T128], at AKT1 [1], the half-maximal inhibitory concentration (IC50) worked out at 26.6 ± 4.8 µM, the “potency against AKT1 (in words)” value is listed as “moderately active” and the “Ligand efficiency (LE = 1.4 pIC50/N)” value was 0.30 kcal mol^−1 N^−1. Also, the inhibition at 10 µM on AKT1 [1] (setting [3]) stood at 78%.

With `NC(=O)c1c(NC(=O)c2ccc(O)c(O)c2)sc2c1CCCCC2` [T159], the IC50 in the assay with SKM-1 (Homo sapiens) is more than 30 µM; in the assay with OCI-AML3 (Homo sapiens, OCI-AML-3), more than 30 µM; in the assay on IMS-M2 (Homo sapiens), more than 30 µM; in the assay with MOLM-13 (Homo sapiens) it was more than 30 µM; with OCI-AML2 (Homo sapiens), more than 30 µM; against AKT1 [1] it was 2.12 ± 0.26 µM. Also, the inhibition at 10 µM on AKT1 [1] (setting [3]) came out at 94%. In addition, the inhibition constant (Ki) at AKT1 [1] stood at 1.91 µM.

Turning to `NC(=O)c1c(NC(=O)c2ccc(F)cc2F)sc2c1CCCCC2` [T187, 2-(2,4-Difluorobenzamido)-5,6,7,8-tetrahydro-4H-cyclohepta[b]thiophene-3-carboxamide], the “activity against p38 MAPK” value in the assay with p38 MAPK was “inactive”. Also, on AKT1 [1], the half-maximal inhibitory concentration (IC50) was determined as 11.4 ± 2.8 µM, the “Ligand efficiency (LE = 1.4 pIC50/N)” value was 0.28 kcal mol^−1 N^−1 and the inhibition constant Ki was 4.19 ± 1.36 µM. In addition, at AKT1 [1] (setting [3]), the inhibition at 10 µM was 56%. Further, the inhibition at 50 µM on AKT1 [1] (50 μM compound solution (footnote b of Table S2), read-out: %inh (percentage of inhibition of AKT1 activity)) came to 56%.

For the compound `NC1(C(=O)N[C@@H](CCO)c2ccc(Cl)cc2)CCN(c2ncnc3[nH]ccc23)CC1` [capivasertib, 4-amino-N-[(1S)-1-(4-chlorophenyl)-3-hydroxypropyl]-1-(7H-pyrrolo[2,3-d]pyrimidin-4-yl)piperidine-4-carboxamide], the half-maximal inhibitory concentration (IC50) in the assay on AKT1 [2] was […].

On to `CC(C)NC[C@@H](C(=O)N1CCN(c2ncnc3c2[C@H](C)C[C@H]3O)CC1)c1ccc(Cl)cc1` [ipatasertib], for which the results for the concentration for half-maximal inhibition (IC50) in the assay with AKT3 and with AKT1 [2] were […] and […], respectively.
